In one test the target is S1P3 (Homo sapiens, UniProt Q99500). The experiment in a line: Receptor binding assay, [33P]sphingosine 1-phosphate competition (SPA), S1P3. The protocol:
Membranes were prepared from CHO cells expressing S1P1 or S1P3 for use in ligand and […] binding studies. Cells were suspended in 50 mM TRIS, pH 7.4, 2 mM EDTA, 250 mM Sucrose (buffer A) and 1× Complete protease inhibitor cocktail (Roche), and disrupted at 4° C. by N2 decompression using a cell disruption bomb (Parr Instrument). Following centrifugation at 1000 RPM for 10 min at 4° C., the supernatant was diluted (2×) in buffer A and centrifuged again at 19000 RPM for 75 min at 4° C. The pellet was then suspended in 10 mM HEPES, pH 7.4, 1 mM EDTA, 250 mM Sucrose (Buffer B), and 1× Complete EDTA-free protease inhibitor cocktail and homogenized using a potter. Membranes were flash frozen in liquid N2 and stored at −80° C.
[33P]sphingosine 1-phosphate (3000 Ci/mmol; American Radiolabeled Chemicals, Inc.) was added to test compounds in 20% DMSO by competition. Membranes and WGA SPA beads (GE Healthcare) were added to give a final volume of 100 μl in 96-well plates or 50 μl in 384-well plates with assay concentrations of 30 pM or 15 pM [33P]sphingosine 1-phosphate (respectively for S1P1 or S1P3), 50 mM HEPES, pH 7.5, 5 mM MgCl2, 100 mM NaCl, 0.4% fatty acid-free BSA, 1-5 μg/well of proteins in 96-well plates vs 0.6-1 μg/well of proteins in 384-well plates and 100 μg/well of WGA SPA beads in 96-well plates vs 75 μg/well of WGA SPA beads in 384-well plates. Binding was performed for 60 min at RT on a shaker and bound radioactivity was measured on a PerkinElmer 1450 MicroBeta counter. Triplicate samples were averaged and normalized as percentage of inhibition relative to total binding (only DMSO in well) and non-specific binding (1000-fold excess of unlabeled S1P). Binding data were analyzed using the GraphPad Prism program or Genedata software.

In test [1] the target is T1, S1P1 (Homo sapiens, UniProt P21453). The experiment in a line: Receptor binding assay, [33P]sphingosine 1-phosphate competition (SPA), S1P1. The protocol: Cells were suspended in 50 mM TRIS, pH 7.4, 2 mM EDTA, 250 mM Sucrose (buffer A) and 1× Complete protease inhibitor cocktail (Roche), and disrupted at 4° C. by N2 decompression using a cell disruption bomb (Parr Instrument). […] The pellet was then suspended in 10 mM HEPES, pH 7.4, 1 mM EDTA, 250 mM Sucrose (Buffer B), and 1× Complete EDTA-free protease inhibitor cocktail and homogenized using a potter. Membranes were flash frozen in liquid N2 and stored at −80° C.
[33P]sphingosine 1-phosphate (3000 Ci/mmol; American Radiolabeled Chemicals, Inc.) was added to test compounds in 20% DMSO by competition. […] Triplicate samples were averaged and normalized as percentage of inhibition relative to total binding (only DMSO in well) and non-specific binding (1000-fold excess of unlabeled S1P). Binding data were analyzed using the GraphPad Prism program or Genedata software.
Target sequence in this assay (P21453 whole entry, species assumed): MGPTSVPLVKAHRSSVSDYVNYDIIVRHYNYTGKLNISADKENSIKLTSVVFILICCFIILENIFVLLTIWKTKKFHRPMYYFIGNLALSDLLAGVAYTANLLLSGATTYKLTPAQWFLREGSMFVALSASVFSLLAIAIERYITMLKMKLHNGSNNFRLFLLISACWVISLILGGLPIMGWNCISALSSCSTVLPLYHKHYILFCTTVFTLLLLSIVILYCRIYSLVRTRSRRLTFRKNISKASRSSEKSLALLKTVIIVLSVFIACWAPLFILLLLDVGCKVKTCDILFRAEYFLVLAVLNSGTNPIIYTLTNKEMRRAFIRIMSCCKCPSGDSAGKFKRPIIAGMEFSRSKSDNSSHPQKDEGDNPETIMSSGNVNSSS

Test [2] deals with T1, S1P1. The experiment in a line: S1P1 internalization assay in S1P1-U2OS cells (cell imaging). The class given is cell-based. The settings on record: U2OS cells expressing S1P1-EGFP, 1 hour. The protocol:
Cellular functional assays: Internalization of Sphingosine-1-phosphate receptor 1 (S1P1) in a human Cell line (U2OS) in a 384-well format using a Cell Imaging analysis.
The S1P1 internalization assay was performed in 384 well plates (Corning® 384 black with clear bottom 3712) using S1P1-U2OS cells from Biolmage (C039A), a human epithelial cell line (Human Bone Osteosarcoma Epithelial Cells). These cells expressed the human S1P1 Receptor fused to the green fluorescent protein (EGFP). A standard CMV promoter (cytomegalovirus promoter) controls the expression of S1P1-EGFP and continuous expression was maintained by addition of geneticin to the culture medium.
S1P1Receptor desensitization induced the internalization of the membrane-localized S1P1-EGFP fusion protein to endosomes, which can be monitored by cell imaging analysis. The cells are plated in low serum medium (Dulbecco's Modified Eagle Medium (DMEM) with Glutamax-1 and high glucose, 1% Penicillin/Streptomycin, 1% Fetal Calf Serum (FCS), 0.5 mg/ml Geneticin) overnight.
The next day, S1P1-U2OS cells are incubated in 20 μl serum free medium (DMEM with Glutamax-1 and high glucose, 0.1% of fatty-acid free Bovin Serum Albumin (BSA), 10 mM, N′-2-Hydroxyethylpiperazine-N′-2 ethanesulphonic acid (HEPES) 1M) for 2 hours at 37° C./5% CO2. The cells are then treated with 4 μl compounds/agonists (6×/3% DMSO) for a total volume of 24 μl, and plates are incubated for 1 hour at 37° C./5% CO2.
S1P1-U2OS cells are fixed with 25 μl Paraformaldehyde 8% and stained with Hoechst 33345 dye (1:1000) for 20 minutes.
They were then washed 3 times with Phosphate Buffered Saline (PBS) and plates are sealed. The internalization of the receptor S1P1-EGFP is measured on Cellomics by calculating the “spot count per object” (“object” corresponds to nuclear and “spot” corresponds to S1P1-EGFP receptor). Internalization data were observed thanks to vHCS View and analyzed using Genedata® software.
Target sequence in this assay (P21453 whole entry): as the sequence (P21453 whole entry, species assumed) above

Where [3] appears, read: 96 well-plate, read-out: S1P3 binding Ki (M) (96 well-plate).
[4] abbreviates: 384 well-plate, read-out: S1P3 binding Ki (M) (384 well-plate).
Where [5] appears, read: 96 well-plate, read-out: S1P1 binding Ki (M) (96 well-plate).
[6] abbreviates: 384 well-plate, read-out: S1P1 binding Ki (M) (384 well-plate).

Each structure is given as a SMILES string. Where two headings read alike, the source gives them in different places.

S1P3, sequence (Q99500 whole entry, species assumed): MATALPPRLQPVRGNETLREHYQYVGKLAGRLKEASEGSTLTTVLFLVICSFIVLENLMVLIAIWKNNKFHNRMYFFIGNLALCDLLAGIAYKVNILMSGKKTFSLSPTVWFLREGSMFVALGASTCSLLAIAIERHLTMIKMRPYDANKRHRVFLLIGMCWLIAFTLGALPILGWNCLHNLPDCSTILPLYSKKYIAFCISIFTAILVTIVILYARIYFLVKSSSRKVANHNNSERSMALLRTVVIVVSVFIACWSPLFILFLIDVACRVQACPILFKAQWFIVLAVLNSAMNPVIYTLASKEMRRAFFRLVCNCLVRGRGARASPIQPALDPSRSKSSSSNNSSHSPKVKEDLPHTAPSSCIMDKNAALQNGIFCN

With `COCc1cc(-c2nc(-c3cccc(CN(C)CC(=O)O)c3)no2)ccc1-c1ccccc1C(F)(F)F` [Example 49, N-(3-{5-[2-(methoxymethyl)-2′-(trifluoromethyl)biphenyl-4-yl]-1,2,4-oxadiazol-3-yl}benzyl)-N-methylglycine], the Ki at S1P3 (setting [3]) amounted to 1.5e-06 M; on S1P3 (setting [4]), 1.41e-06 M; on S1P1 [1] (setting [5]), 8.7e-10 M; on S1P1 [1] (setting [6]), 2.35e-09 M. The same compound showed an EC50 on S1P1 [2] of 11.3 nM.
On to `COCc1cc(-c2nc(-c3cccc(CN(C)CC(=O)O)c3)no2)ccc1-c1ccc(F)cc1C(F)(F)F` [Example 50, N-(3-{5-[4′-fluoro-2-(methoxymethyl)-2′-(trifluoromethyl)biphenyl-4-yl]-1,2,4-oxadiazol-3-yl}benzyl)-N-methylglycine], for which the Ki on S1P3 (setting [3]) worked out at 7.71e-07 M; on S1P3 (setting [4]), 1.18e-06 M; on S1P1 [1] (setting [5]), 8.49e-10 M; on S1P1 [1] (setting [6]) it was 1.24e-08 M. This compound returned an EC50 on S1P1 [2] of 25.3 nM.
`Cc1ccccc1-c1ccc(-c2nc(-c3cc(F)cc(CN(C)CC(=O)O)c3)no2)cc1C(F)(F)F` [Example 64, N-(3-fluoro-5-{5-[2′-methyl-2-(trifluoromethyl)biphenyl-4-yl]-1,2,4-oxadiazol-3-yl}benzyl)-N-methylglycine]: the Ki was determined as 3.68e-08 M on S1P3 (setting [3]) and 2.96e-10 M on S1P1 [1] (setting [5]). A half-maximal response at S1P1 [2] (EC50) required 8.11 nM.
In the same order, the values of `CN(CC(=O)O)Cc1cc(F)cc(-c2noc(-c3ccc(-c4ccccc4)c(C(F)(F)F)c3)n2)c1` [Example 67] are 3.69e-08 M, 2.31e-10 M and 11.9 nM.
`CN(CC(=O)O)Cc1cccc(-c2noc(-c3ccc(-c4ccccc4)c(C(F)(F)F)c3)n2)c1` [Example 68]: the figures for the Ki at S1P3 (setting [3]) and on S1P1 [1] (setting [5]) were 1.09e-07 M and 3.57e-10 M, respectively. Moreover, it took 11.2 nM to reach a half-maximal effect on S1P1 [2] (EC50).
For the compound `CCN(CCC(=O)O)Cc1cccc(-c2noc(-c3ccc(-c4ccccc4C)c(C(F)(F)F)c3)n2)c1` [Example 69, N-ethyl-N-(3-{5-[2′-methyl-2-(trifluoromethyl)biphenyl-4-yl]-1,2,4-oxadiazol-3-yl}benzyl)-beta-alanine], the Ki on S1P3 (setting [3]) was determined as 4.67e-08 M; at S1P1 [1] (setting [5]), 2.21e-10 M; on S1P1 [1] (setting [6]), 1.47e-09 M. At S1P1 [2], this compound yielded an EC50 of 8.97 nM.
With `Cc1ccccc1-c1ccc(-c2nc(-c3ccc(CN(C)CCC(=O)O)c(F)c3)no2)cc1C(F)(F)F` [Example 71, N-(2-fluoro-4-{5-[2′-methyl-2-(trifluoromethyl)biphenyl-4-yl]-1,2,4-oxadiazol-3-yl}benzyl)-N-methyl-beta-alanine], the Ki on S1P3 (setting [3]) is 1.31e-07 M.
Turning to `Cc1ccccc1-c1ccc(-c2nc(-c3ccc(CN(C)CCC(=O)O)cc3)no2)cc1C(F)(F)F` [Example 72], the values for the inhibitory constant (Ki) at S1P3 (setting [3]) and on S1P1 [1] (setting [5]) were 1.88e-07 M and 2.7e-10 M, respectively. On S1P1 [2], this compound gave an EC50 of 2.05 nM.
With `CCc1ccccc1-c1ccc(-c2nc(-c3ccc(CN(C)CC(=O)O)c(F)c3)no2)cc1C(F)(F)F` [Example 110, N-(4-{5-[2′-ethyl-2-(trifluoromethyl)biphenyl-4-yl]-1,2,4-oxadiazol-3-yl}-2-fluorobenzyl)-N-methylglycine], the inhibitory constant (Ki) on S1P1 [1] (setting [6]) turned out to be 6.22e-09 M. At S1P1 [2], this compound had an EC50 of 56.7 nM.
For `Cc1ccccc1-c1ccc(-c2nc(-c3ccc(Cl)c(CN(C)CC(=O)O)c3)no2)cc1C(F)(F)F` [Example 111, N-(2-chloro-5-{5-[2′-methyl-2-(trifluoromethyl)biphenyl-4-yl]-1,2,4-oxadiazol-3-yl}benzyl)-N-methylglycine], the Ki on S1P1 [1] (setting [6]) came to 3.68e-09 M. Further, the 50% effective concentration (EC50) on S1P1 [2] stood at 45.9 nM.
Consider `Cc1ccccc1-c1ccc(-c2nc(-c3cccc(CN(CC(=O)O)C(C)C)c3)no2)cc1C(F)(F)F` [Example 117, (Isopropyl-{3-[5-(2′-methyl-2-trifluoromethyl-biphenyl-4-yl)-[1,2,4]oxadiazol-3-yl]-benzyl}-amino)-acetic acid], for which, at S1P1 [1] (setting [6]), the inhibitory constant (Ki) stood at 3.24e-09 M. Besides, at S1P1 [2], the EC50 worked out at 50.4 nM.
`CN(CC(=O)O)Cc1ccc(-c2noc(-c3ccc(-c4ccccc4C(F)(F)F)c(Cl)c3)n2)cc1` [Example 135]: the Ki at S1P1 [1] (setting [6]) is 2.63e-09 M. Besides, the EC50 on S1P1 [2] is 26.1 nM.

The term Ki denotes a measure of affinity in units of concentration, obtained from inhibition or displacement. In general, EC50 refers to the concentration at which the effect is half-maximal. A higher EC50 goes with lower potency in that assay.
